In ChEMBL document CHEMBL3132769, “Fragment growing to retain or alter the selectivity of anchored kinase hinge-binding fragments” (Medchemcomm, 2014):

Columns and labels:
[1] = biological target: Casein kinase I isoform alpha (Homo sapiens) (UniProt P48729); assay: Inhibition of human full length CSNK1A1 expressed in baculovirus assessed as substrate phosphorylation using fluorescence-labelled peptides as substrate at 420 uM after 90 mins by microfluidic peptide phosphorylation assay
[2] = tested on: Tyrosine-protein kinase ABL1 (Homo sapiens), P00519 [H396P]; assay: Inhibition of human truncated ABL H396P mutant expressed in baculovirus assessed as substrate phosphorylation using fluorescence-labelled peptides as substrate at 420 uM after 90 mins by microfluidic peptide phosphorylation assay
[3] = biological target: T1, cGMP-dependent protein kinase 1 (Homo sapiens) (UniProt Q13976); assay: Inhibition of human full length PKG-1a expressed in baculovirus assessed as substrate phosphorylation using fluorescence-labelled peptides as substrate at 420 uM after 90 mins by microfluidic peptide phosphorylation assay
T1 sequence (whole entry): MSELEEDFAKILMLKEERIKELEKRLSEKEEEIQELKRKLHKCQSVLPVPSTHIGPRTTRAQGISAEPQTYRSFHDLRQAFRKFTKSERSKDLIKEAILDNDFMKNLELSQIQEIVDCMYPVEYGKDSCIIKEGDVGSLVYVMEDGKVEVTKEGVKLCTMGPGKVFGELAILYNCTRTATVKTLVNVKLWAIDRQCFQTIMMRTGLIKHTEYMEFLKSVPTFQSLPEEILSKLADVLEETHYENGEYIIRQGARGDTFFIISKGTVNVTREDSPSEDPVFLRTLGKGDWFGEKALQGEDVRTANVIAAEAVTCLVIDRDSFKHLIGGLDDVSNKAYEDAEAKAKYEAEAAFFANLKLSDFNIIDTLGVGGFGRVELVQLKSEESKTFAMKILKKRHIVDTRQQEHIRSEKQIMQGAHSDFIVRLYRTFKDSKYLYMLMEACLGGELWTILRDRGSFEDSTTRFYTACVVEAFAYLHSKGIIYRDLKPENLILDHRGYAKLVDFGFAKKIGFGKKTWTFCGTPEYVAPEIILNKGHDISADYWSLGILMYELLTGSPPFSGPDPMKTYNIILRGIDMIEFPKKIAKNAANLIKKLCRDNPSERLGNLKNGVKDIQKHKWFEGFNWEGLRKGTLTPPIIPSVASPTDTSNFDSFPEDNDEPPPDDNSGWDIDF

[4] = biological target: Ribosomal protein S6 kinase alpha-2 (Homo sapiens) (UniProt Q15349); assay: Inhibition of human full length RSK3 expressed in baculovirus assessed as substrate phosphorylation using fluorescence-labelled peptides as substrate at 420 uM after 90 mins by microfluidic peptide phosphorylation assay
[5] = biological target: T2, Serine/threonine-protein kinase DCLK2 (Homo sapiens) (UniProt Q8N568); assay: Inhibition of human full length DCAMKL2 expressed in baculovirus assessed as substrate phosphorylation using fluorescence-labelled peptides as substrate at 2 uM after 90 mins by microfluidic peptide phosphorylation assay
T2 sequence (whole entry): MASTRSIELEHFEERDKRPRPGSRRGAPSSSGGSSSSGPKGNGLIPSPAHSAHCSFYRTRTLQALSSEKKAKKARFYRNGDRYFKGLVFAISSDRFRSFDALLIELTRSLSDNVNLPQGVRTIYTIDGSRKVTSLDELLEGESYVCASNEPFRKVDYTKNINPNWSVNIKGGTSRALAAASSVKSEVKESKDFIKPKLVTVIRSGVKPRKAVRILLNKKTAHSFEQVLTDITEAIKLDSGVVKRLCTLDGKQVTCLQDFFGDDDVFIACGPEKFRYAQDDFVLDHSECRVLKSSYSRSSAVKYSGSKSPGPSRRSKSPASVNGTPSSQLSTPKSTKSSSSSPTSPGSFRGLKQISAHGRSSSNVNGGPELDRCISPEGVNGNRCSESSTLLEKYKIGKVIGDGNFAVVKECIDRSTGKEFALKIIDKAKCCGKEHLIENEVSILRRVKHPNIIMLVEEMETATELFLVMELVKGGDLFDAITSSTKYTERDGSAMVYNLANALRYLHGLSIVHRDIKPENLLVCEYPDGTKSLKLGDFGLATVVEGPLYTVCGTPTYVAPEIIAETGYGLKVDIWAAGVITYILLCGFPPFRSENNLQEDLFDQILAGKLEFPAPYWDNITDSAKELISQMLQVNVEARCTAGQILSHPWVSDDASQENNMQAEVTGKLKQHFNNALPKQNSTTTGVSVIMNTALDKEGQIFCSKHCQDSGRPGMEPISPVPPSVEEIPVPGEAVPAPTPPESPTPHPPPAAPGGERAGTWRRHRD

[6] = biological target: Fibroblast growth factor receptor 2 (Homo sapiens) (UniProt P21802); assay: Inhibition of human FGFR2 catalytic domain expressed in baculovirus assessed as substrate phosphorylation using fluorescence-labelled peptides as substrate at 95 uM after 90 mins by microfluidic peptide phosphorylation assay
[7] = biological target: Fibroblast growth factor receptor 3 (Homo sapiens) (UniProt P22607); assay: Inhibition of human FGFR3 catalytic domain expressed in baculovirus assessed as substrate phosphorylation using fluorescence-labelled peptides as substrate at 0.06 uM after 90 mins by microfluidic peptide phosphorylation assay
[8] = biological target: T3, Serine/threonine-protein kinase Sgk3 (Homo sapiens) (UniProt Q96BR1); assay: Inhibition of human full length SGK3 expressed in baculovirus assessed as substrate phosphorylation using fluorescence-labelled peptides as substrate at 70 uM after 90 mins by microfluidic peptide phosphorylation assay
T3 sequence (whole entry): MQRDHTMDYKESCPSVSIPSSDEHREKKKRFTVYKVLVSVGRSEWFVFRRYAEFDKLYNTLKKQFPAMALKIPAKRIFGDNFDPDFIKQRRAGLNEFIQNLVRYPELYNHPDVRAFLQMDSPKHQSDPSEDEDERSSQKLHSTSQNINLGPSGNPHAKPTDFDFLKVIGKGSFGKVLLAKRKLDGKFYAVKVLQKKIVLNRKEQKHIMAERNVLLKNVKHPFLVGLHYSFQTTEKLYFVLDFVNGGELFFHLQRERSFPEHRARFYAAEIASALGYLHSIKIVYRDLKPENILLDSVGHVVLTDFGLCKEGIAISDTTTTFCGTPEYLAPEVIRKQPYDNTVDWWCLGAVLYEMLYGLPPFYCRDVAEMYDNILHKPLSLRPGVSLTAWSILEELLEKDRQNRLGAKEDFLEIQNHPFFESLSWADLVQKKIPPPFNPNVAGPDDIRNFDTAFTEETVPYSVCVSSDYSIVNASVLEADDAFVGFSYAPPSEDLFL

[9] = biological target: Epidermal growth factor receptor (Homo sapiens) (UniProt P00533); assay: Inhibition of human EGFR catalytic domain expressed in baculovirus assessed as substrate phosphorylation using fluorescence-labelled peptides as substrate at 70 uM after 90 mins by microfluidic peptide phosphorylation assay
Epidermal growth factor receptor (Homo sapiens), sequence (P00533 whole entry, the tested form may be a part): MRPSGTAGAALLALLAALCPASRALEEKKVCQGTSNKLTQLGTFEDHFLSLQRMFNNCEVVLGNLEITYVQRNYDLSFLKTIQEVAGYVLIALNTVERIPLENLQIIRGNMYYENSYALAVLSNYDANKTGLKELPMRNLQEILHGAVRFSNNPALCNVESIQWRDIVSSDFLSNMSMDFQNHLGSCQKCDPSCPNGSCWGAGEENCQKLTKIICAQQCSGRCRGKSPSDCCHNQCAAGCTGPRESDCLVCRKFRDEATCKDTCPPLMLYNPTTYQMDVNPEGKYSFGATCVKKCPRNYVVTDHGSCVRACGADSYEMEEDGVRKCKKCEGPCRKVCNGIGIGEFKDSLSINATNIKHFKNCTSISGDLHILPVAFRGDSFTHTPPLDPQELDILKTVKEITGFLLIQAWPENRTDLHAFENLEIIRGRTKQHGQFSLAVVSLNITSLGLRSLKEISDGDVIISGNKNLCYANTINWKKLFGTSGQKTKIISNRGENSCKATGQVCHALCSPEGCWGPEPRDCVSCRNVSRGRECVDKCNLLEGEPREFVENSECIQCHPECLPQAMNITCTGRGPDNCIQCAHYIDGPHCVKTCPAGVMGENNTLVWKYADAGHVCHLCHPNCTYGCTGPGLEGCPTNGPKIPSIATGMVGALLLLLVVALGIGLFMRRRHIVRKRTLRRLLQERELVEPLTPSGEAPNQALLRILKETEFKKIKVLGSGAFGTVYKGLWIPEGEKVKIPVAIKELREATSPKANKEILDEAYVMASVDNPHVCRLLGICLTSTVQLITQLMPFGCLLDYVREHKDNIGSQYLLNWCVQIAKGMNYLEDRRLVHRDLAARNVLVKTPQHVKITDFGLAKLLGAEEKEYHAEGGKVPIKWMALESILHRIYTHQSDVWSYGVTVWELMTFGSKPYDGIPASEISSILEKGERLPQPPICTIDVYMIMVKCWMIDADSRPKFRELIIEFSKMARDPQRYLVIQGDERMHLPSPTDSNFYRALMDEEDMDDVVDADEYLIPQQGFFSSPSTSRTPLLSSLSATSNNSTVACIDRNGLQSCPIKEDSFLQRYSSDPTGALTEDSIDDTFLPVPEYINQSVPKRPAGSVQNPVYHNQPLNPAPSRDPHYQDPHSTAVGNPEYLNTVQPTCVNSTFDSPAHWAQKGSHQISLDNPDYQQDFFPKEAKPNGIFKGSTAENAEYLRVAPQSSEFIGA

Fibroblast growth factor receptor 2 (Homo sapiens), sequence (P21802 22-821 limits assumed): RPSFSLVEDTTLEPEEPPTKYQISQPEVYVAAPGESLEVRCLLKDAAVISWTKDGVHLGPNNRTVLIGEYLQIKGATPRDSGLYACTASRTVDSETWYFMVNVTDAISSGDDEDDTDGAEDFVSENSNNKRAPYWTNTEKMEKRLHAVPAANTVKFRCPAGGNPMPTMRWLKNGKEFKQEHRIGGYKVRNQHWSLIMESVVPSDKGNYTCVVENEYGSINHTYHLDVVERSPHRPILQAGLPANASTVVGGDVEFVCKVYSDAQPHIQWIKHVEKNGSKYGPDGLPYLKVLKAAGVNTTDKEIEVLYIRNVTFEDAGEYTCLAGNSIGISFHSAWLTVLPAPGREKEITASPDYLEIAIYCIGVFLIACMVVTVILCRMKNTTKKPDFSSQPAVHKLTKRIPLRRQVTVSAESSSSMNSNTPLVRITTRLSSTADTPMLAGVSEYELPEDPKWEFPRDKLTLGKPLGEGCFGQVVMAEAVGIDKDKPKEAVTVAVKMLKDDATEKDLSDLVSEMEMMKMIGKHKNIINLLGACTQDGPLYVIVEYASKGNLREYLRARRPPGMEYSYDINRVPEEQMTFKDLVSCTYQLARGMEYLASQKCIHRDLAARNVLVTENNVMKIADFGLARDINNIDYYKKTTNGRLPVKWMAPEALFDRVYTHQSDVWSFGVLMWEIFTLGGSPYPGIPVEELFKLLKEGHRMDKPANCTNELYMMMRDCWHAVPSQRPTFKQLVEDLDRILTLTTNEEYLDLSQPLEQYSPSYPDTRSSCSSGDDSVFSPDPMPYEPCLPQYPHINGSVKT
Fibroblast growth factor receptor 3 (Homo sapiens), sequence (P22607 23-806 limits assumed): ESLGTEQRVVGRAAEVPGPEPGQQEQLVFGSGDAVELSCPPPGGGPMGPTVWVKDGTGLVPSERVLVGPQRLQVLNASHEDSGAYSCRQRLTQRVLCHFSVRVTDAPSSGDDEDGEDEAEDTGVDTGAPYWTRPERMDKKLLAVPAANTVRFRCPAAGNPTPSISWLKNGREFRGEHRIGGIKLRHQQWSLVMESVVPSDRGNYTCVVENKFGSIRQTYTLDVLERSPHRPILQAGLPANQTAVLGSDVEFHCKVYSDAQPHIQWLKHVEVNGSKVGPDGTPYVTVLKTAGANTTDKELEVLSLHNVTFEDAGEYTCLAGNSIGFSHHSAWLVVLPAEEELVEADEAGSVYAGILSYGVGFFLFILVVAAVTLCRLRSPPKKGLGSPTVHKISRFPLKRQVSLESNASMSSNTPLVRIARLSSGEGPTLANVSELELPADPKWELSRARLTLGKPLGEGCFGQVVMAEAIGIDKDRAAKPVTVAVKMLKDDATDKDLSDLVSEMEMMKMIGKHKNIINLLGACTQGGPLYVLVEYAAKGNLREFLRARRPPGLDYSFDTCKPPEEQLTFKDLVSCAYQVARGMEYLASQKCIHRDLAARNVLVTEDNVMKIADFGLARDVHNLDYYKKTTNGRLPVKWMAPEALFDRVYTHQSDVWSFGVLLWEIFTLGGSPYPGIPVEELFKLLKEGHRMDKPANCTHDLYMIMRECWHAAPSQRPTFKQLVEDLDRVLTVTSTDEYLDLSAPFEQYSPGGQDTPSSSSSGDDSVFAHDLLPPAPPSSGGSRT
Casein kinase I isoform alpha (Homo sapiens), sequence (P48729 2-337 limits assumed): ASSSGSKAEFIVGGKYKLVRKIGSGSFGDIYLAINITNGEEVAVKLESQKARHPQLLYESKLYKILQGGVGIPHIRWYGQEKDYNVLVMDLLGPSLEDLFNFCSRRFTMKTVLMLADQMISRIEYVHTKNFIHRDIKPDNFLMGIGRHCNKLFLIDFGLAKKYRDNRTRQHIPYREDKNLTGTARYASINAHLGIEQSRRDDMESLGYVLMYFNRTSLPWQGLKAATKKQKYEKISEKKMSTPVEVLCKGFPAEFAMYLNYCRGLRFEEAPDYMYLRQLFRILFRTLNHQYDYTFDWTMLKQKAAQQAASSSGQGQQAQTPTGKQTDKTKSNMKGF
Ribosomal protein S6 kinase alpha-2 (Homo sapiens), sequence (Q15349 whole entry): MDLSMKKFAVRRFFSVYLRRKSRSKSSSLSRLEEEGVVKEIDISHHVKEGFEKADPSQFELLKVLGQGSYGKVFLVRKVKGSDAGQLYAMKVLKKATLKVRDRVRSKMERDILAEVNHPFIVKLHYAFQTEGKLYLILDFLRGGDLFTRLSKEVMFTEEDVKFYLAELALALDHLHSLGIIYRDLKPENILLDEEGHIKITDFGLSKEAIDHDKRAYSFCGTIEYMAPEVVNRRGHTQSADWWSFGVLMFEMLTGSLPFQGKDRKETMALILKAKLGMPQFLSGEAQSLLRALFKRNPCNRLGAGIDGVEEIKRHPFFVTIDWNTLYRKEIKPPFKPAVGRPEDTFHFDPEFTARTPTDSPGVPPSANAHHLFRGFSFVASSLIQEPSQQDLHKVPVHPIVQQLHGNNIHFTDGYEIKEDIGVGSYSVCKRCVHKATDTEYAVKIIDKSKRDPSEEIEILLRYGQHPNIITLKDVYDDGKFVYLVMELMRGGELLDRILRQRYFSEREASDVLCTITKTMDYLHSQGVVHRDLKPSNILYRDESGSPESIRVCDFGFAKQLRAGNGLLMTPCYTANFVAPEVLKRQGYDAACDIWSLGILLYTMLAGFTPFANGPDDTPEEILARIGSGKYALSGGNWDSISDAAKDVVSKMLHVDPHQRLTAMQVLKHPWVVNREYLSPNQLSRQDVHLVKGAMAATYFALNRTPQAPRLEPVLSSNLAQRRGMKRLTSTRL

## c1nc(N2CCOCC2)c2nc[nH]c2n1
[1]
  inhibition: 60.5%
[2]
  inhibition: 71%
[3]
  inhibition: 98%
[4]
  inhibition: 98%

## NC1CCN(c2ncnc3[nH]ccc23)CC1
[5]
  inhibition: 1.5%

## NCCc1ccc(-c2ncnc3[nH]cnc23)cc1
[6]
  inhibition: 36%

## NC1(Cc2ccc(Cl)cc2)CCN(c2ncnc3[nH]ccc23)CC1
[7]
  inhibition: 0%

## CNCc1ccc(-c2ncnc3[nH]cnc23)cc1
[8]
  inhibition: 58%
[9]
  inhibition: 16.5%
